Source: patent US9173935B2, “Phospholipid drug analogs” (Telormedix SA, priority 2010, dated 2015)
Read-outs that look alike come from different tables or passages of the source.

Key:
[1] = system: Raw264.7 mouse macrophage cell line; experiment: IL-6 and TNF-alpha secretion in Raw264.7 cells (ELISA); format: cell-based; conditions: 24 hours treatment, 7 doses
Experimental: EC50 values were determined for control and each drug candidate for IL-6 and TNF-alpha secretion. […] The cells were plated in 96 well plates and treated with TLR7 agonists for 24 hours in 7 doses. The conditioned media was removed after 24 hours for ELISA analyses. The cells were subsequently assayed for viability using the XTT assay according to the guidelines from the supplier. […] The experiment was performed in quadruplicate wells for each testing series, and the supernatant pooled and measured by ELISA in triplicates. Concentrations of IL-6 and TNF-alpha were determined by ELISA from R&D Systems using the Microsoft Excel Software. The results were analyzed in Graph Pad Prism in order to prepare dose-response curves, and for determination of EC50 values.

human PBMCs = experiment: IL-6 secretion in human PBMCs, two batches of Compound A and SC12; format: cell-based; conditions: 24 h, 4 doses
Experimental: PBMCs were purified from two donors and plated into 96 well plates at 2×10^5 cells/well in RPMI media including human 2% heat inactivated AB serum, glutamine, Pen-strep and R-mercapto-ethanol. The cells were treated with TLR7 agonists for 24 h in 4 doses. The conditioned media was removed for ELISA analyses for IL-6, and the EC50 value determined for each compound and each batch.
All compounds were tested in four concentrations (10-1-0.1-0.01 micromolar).
Concentrations of IL-6 were determined by ELISA from R&D Systems using the Microsoft Excel software. The results were analyzed in Graph Pad Prism in order to prepare dose-response curves, and for determination of EC50 values.

HLA-DR+/CD20+ B cells = experiment: FACS analysis of B cell activation (CD40) in whole blood; format: cell-based, human; conditions: 24 hours, 2 and 10 uM, three donors
Experimental: A flow cytometric analysis was performed on whole blood from three donors after treatment with two compound concentrations for 24 h. The FACS analysis for donor 1 and donor 2 was made on another day than donor 3. The compound concentrations were as follows:
B cell activation: 2 and 10 uM
The FACS analysis was used to identify whether the test compounds could induce activation of B cells, and two different subsets of dendritic cells, namely the myeloid CD11c+/CD123− DCs and the plasmacytoid CD11c−/CD123+ DCs. The following markers were studied to identify the activation status of the different subsets:
The FACS staining was performed according to the manufacturer's instructions. Lysis of red blood cells was performed before FACS staining in order to minimize auto-florescence. To include as many B cells and DCs in the study as possible the FACS analyses were performed on 500,000 cells in total for each staining. A P1 gate was set only to include relevant cells on FSC vs. SSC (see FIGS. 12-15). The results of the individual analysis were present as Mean Fluorescence Intensity
The analysis of expression of the activation marker CD40 on B cells was made on double positive HLA-DR (MHC class II) (P4 gate) and CD20 cells (B cell marker) (P8 gate).

[2] = Single dose intravenous acute toxicity study in rats; format: in vivo, Sprague Dawley rat; conditions: for Mortality: preliminary phase, one male and one female; for Mortality and signs of toxicity: main phase
Experimental: An additional group, similarly composed, received the vehicle alone and acted as a control. […] Clinical signs were limited to piloerection and reduced activity, observed on the day of dosing.
In the main phase, 5 male and 5 female animals were dosed at 90 mg/kg and observed for a period of 14 days. A second group, similarly constituted, received the vehicle alone and acted as control. […] In addition, one male and one female dosed at 90 mg/kg were found dead on Day 2 of the study. Twitches, ataxia, piloerection, reduced activity and hunched posture were the major signs observed in animals before death. […] Piloerection was observed up to Day 3 of the study. A second group, similarly composed, was dosed at 80 mg/kg.

CYP3A4 = CYP3A4 (Homo sapiens (Human), UniProt P08684); experiment: Fluorescent High Throughput P450 assay, CYP3A4; format: biochemical; conditions: substrate BFC; read-out: CYP3A4 IC50 (Mean ± S.D.)
Sequence of CYP3A4 (P08684 whole entry, looked up): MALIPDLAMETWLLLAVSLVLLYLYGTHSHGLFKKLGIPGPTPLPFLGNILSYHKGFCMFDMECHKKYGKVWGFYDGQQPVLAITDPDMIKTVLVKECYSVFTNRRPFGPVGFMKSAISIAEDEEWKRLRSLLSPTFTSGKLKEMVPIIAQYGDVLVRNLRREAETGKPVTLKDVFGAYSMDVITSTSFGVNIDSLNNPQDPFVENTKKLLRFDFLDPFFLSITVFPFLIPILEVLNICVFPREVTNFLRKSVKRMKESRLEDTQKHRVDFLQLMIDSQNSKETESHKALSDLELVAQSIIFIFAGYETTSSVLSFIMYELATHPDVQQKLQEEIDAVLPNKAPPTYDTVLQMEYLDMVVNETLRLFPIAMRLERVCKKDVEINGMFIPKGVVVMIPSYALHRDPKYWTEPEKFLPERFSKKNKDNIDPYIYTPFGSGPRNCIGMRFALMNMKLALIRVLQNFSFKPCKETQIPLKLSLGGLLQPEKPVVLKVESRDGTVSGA
Experimental: (§1) Inhibition of the P450 isoforms was measured in specific assays using specific substrates that become fluorescent upon CYP metabolism. Compounds, dissolved in ACN (acetonitrile) (CYP2E1, CYP2C8, CYP2B6, CYP3A5) or DMSO (all remaining isoforms), were tested in duplicate (n=2) in concentration-response curves (eight concentrations) in a 96-well plate containing incubation/NADPH regenerating buffer. Specific isoenzymes and substrates were added and incubated at 37° C. Reactions were terminated at different times, depending on the assays, and plates read on a Fluoroskan Ascent at the appropriate emission/excitation wavelengths. Concentration-response curves performed in duplicate for known inhibitors for each isoenzyme were tested in every assay as positive control.

CYP2C8 = CYP2C8 (Homo sapiens (Human), UniProt P10632); experiment: Fluorescent High Throughput P450 assay, CYP2C8; format: biochemical; conditions: substrate DBF; head of Table 31 prints CYP2CB; read-out: CYP2C8 IC50 (Mean ± S.D.)
Sequence of CYP2C8 (P10632 whole entry, looked up): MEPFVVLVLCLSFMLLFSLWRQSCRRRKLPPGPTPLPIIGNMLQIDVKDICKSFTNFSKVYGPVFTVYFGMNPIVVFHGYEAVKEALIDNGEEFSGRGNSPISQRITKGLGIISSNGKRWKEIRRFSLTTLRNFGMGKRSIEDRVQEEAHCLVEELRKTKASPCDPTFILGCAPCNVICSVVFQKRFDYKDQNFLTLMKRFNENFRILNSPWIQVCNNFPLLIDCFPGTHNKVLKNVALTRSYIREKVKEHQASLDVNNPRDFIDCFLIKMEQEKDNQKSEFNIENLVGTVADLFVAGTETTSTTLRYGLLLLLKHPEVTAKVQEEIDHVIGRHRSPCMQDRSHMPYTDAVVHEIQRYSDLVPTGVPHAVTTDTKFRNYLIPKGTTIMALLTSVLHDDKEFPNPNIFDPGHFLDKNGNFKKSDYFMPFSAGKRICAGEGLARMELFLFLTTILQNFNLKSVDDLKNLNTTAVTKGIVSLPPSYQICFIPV
Experimental: as §1

CYP2B6 = CYP2B6 (Homo sapiens (Human), UniProt P20813); experiment: Fluorescent High Throughput P450 assay, CYP2B6; format: biochemical; conditions: substrate EFC; read-out: CYP2B6 IC50 (Mean ± S.D.)
Sequence of CYP2B6 (P20813 whole entry, looked up): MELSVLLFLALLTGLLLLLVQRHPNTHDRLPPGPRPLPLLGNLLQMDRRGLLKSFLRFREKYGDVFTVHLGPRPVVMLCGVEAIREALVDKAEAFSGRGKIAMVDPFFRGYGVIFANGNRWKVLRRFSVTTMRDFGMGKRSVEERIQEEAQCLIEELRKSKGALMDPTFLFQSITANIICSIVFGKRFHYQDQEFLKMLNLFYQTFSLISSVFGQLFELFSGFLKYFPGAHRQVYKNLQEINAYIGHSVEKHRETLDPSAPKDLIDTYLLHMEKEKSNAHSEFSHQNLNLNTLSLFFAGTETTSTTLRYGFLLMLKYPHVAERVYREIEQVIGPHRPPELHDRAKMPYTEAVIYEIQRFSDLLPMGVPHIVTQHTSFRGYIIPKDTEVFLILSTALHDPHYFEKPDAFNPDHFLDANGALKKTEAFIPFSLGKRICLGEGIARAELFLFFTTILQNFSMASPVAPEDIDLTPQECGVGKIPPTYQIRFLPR
Experimental: as §1

[3] = system: AY-27 rat bladder cancer cell-line
[4] = day 12, group 1 Imiquimod 0.1%, group 2 SC12 0.38%

For `CCCCCCCCCCCC(=O)OCC(COP(=O)(O)OCCNC(=O)c1ccc(Cn2c(=O)[nH]c3c(N)nc(OCCOC)nc32)cc1)OC(=O)CCCCCCCCCCC` (stereo not shown) [SC12], which EC50 ([1]; read-out: EC 50 IL 6) is on record?
The EC50 was 0.042 µM.

And the EC50 ([1]; read-out: EC 50 TNF-alpha)?
Its EC50 is 0.041 µM.

What about the EC50 (human PBMCs; Donor 1, listed as SC12 new 20288) of the same compound?
Its EC50 is 1.87 µM.

And the EC50 (human PBMCs; Donor 1, listed as SC12 old CH730/2/13D)?
Its EC50 is 2.01 µM.

What about the EC50 (human PBMCs; Donor 2, listed as SC12 new 20288) of the same compound?
Its EC50 is 0.947 µM.

What about the EC50 (human PBMCs; Donor 2, listed as SC12 old CH730/2/13D) of the same compound?
The EC50 was 1.03 µM.

What about the “CD40 expression (MFI) on B cells” value (HLA-DR+/CD20+ B cells) of the same compound?
The value was “induced CD40 expression in donor 1 and donor 2 in all tested concentrations”.

And the Mortality ([2]; 76 mg/kg i.v.)?
The Mortality was “No mortality occurred”.

And the “Mortality and signs of toxicity” value ([2]; 80 mg/kg i.v.)?
Its value is “no mortality and no signs of toxicity”.

And the “Mortality and signs of toxicity” value ([2]; 90 mg/kg i.v., 5 male and 5 female)?
Its value is “induced mortality or significant signs of toxicity”.

And the Mortality ([2]; 100 mg/kg i.v.)?
The Mortality was “Both animals died at dosing”.

And the Maximum tolerated dose ([2]; single intravenous dose)?
Its Maximum tolerated dose is 80 mg/kg.

What about the IC50 (CYP3A4) of the same compound?
The IC50 was 13.6 ± 0.7 µM.

What about the IC50 (CYP2C8) of the same compound?
Its IC50 is greater than 100 µM.

And the IC50 (CYP2B6)?
The IC50 was greater than 100 µM.

What about the “Number of rats with a tumor positive bladder” value ([3]; day 12) of the same compound?
Its value is 8 of 14.

What about the “Rats with pT2 Tumor, number (% of 14)” value [3, 4] of the same compound?
The value was 7 (50.0%).

And the “Tumor free rats, number (% of 14)” value [3, 4]?
Its value is 6 (42.9%).

And the “Rats with pTa Tumor, number (% of 14)” value ([3]; day 12, group 2 SC12 0.38%)?
Its value is 1 (7.1%).

And the “Mean weight of the rat bladders” value ([3]; day 12, intravesical 0.5 ml on day 2 and 5, group 1 Imiquimod 0.1%, group 2 SC12 0.38%)?
The value was 0.1014 grams.

And the “Mean number of tumors per rat bladder” value ([3]; group 1 Imiquimod 0.1%, group 2 SC12 0.38%)?
The value was 1.36.

And the Mean invasion depth ([3]; tumor positive bladders, group 1 Imiquimod 0.1%, group 2 SC12 0.38%)?
Its Mean invasion depth is 1.4250 mm.
